Assay results: US20170143753A1, “SOPHOROLIPID ESTER CHAIN LENGTH DEPENDENCE ON THE INHIBITION OF HUMAN PATHOGENS” (Syntehzyme LLC, priority 2011, published 2017)
In brackets after ≈: the same amount, converted by molar mass. Where two headings read alike, the source gives them in different places.

Key:
Listeria innocua = assay: Minimum inhibitory concentration (MIC), broth microdilution; type: cell-based; details: for MIC: Listeria innocua, read-out: Minimum Inhibitory Concentration (MIC) Listeria Innocua; for activity against Listeria innocua (in words): MIC assay, up to 128 μg/mL
Protocol: (§1) Sophorolipid ester derivatives, as well as the diacetate lactonic sophorolipid have inhibitory activity against a range of human pathogenic bacteria, which was confirmed by experiments and observations. Sophorolipid samples were dissolved in pure DMSO to a final concentration of 2.56 mg/mL that was used as a stock solution. Except the first row, the wells of a 96-well microplate were loaded with 100 μL of sterilized PBS buffer. The stock solution (20 μL) and sterilized PBS buffer pH 7.4 (180 μL) was added into the first row of the 96-well microplate and serially diluted (2-fold dilution) from 256 μg/mL to 2 μg/mL using PBS buffer. After serial dilution, 100 μL of fresh bacteria cells (10^6 cfu/mL) suspended in Soy broth (SB) or Mueller Hinton broth (MHB) culture medium were added to each well and the plates were incubated for 16 or 30 hours. Wells with only cells in 5% DMSO in PBS/medium (no SL) and with only 5% DMSO in PBS/medium (no SL and no cells) were used as positive and negative controls, respectively. […] Lactonic SL as well as all SL esters except SL hexyl ester (no activity against all strains) and SL pentyl ester (no activity against B. Subtilis) were active against all three gram-positive bacterial strains tested (B. Cereus, B. Subtilis, Listeria innocua). The unexpected result in Table 2 is that, as the chain length of the sophorolipid ester increased from methyl to ethyl, propyl and butyl, the MIC values for B. Cereus, B. Subtilis and L. Innocua decrease. The pentyl ester has similarly low MIC values as the butyl ester derivative for B. Cereus and L. Innocua.

B. Subtilis = assay: as above; type: cell-based; details: for MIC: Bacillus subtilis, read-out: Minimum Inhibitory Concentration (MIC) B. Subtilis; for activity against B. Subtilis (in words): MIC assay, up to 128 μg/mL
Protocol: as §1

B. Cereus = assay: as above; type: cell-based; details: for MIC: Bacillus cereus, read-out: Minimum Inhibitory Concentration (MIC) B. Cereus; for activity against B. Cereus (in words): MIC assay, up to 128 μg/mL
Protocol: as §1

human pathogen bacteria = assay: Bactericidal activity (time-kill study); type: cell-based; details: roughly 10^7 cfu/mL in PBS pH 7.4; for cells killed: at 2×MIC and 4×MIC, within 1 hour; for time to reach 3 log reduction: time-kill, 2×MIC and 4×MIC
Protocol: Bactericidal activity (time-kill study): an in vitro assay was performed to test the bactericidal effect of each sophorolipid derivatives on human pathogen bacteria viability. […] After 15 min, 45 min, 1 h and 3 h incubation, cells were spread on agar plates, incubated at 37° C. for 18 hours and examined for colonies. An untreated cells vial (i.e. no SL added) was used as the control.
To further investigate if the growth inhibition by sophorolipid derivatives is associated with cell death, i.e. if sophorolipid derivatives are bactericidal or bacteriostatic, time-kill studies were performed. […] Moreover, the killing rate was higher for these sophorolipid ester derivatives than natural di-acetylated lactonic sophorolipid that requires almost 2 hours to reach a 3 log reduction.

[1] = Solubility in water / aqueous systems (statement); type: physicochemical; details: aqueous formulations
[2] = prior art statement; cited from earlier work
[3] = incubation time 30 h, 10^6 cfu/mL, no visible growth
[4] = incubation time 16 h, 10^6 cfu/mL, no visible growth

Compound	cells killed (human pathogen bacteria)	time to reach 3 log reduction (human pathogen bacteria) [hour]	activity against B. Subtilis (in words) (B. Subtilis)	MIC (Listeria innocua; [3]) [µg/mL]	MIC (B. Subtilis; [4]) [µg/mL]	MIC (B. Cereus; [4]) [µg/mL]	other results
COC(=O)CCCCCCC/C=C\CCCCCCC(C)OC1OC(CO)C(O)C(O)C1OC1OC(CO)C(O)C(O)C1O (centres unmarked) [SL Methyl ester]	more than 99.9%	≤ 1	–	–	–	–	MIC (Listeria innocua; 30 h): 64 µg/mL (≈ 101 µM); MIC (B. Subtilis; 16 h): 32 µg/mL (≈ 50.3 µM); MIC (B. Cereus; 16 h): 32 µg/mL (≈ 50.3 µM)
SL Hexyl ester	–	–	no activity	–	–	–	activity against Listeria innocua (in words) (Listeria innocua): no activity; Minimum Inhibitory Concentration (MIC) Listeria Innocua (Listeria innocua; [3]): >128 µg/mL; Minimum Inhibitory Concentration (MIC) B. Subtilis (B. Subtilis; [4]): >128 µg/mL; activity against B. Cereus (in words) (B. Cereus): no activity; Minimum Inhibitory Concentration (MIC) B. Cereus (B. Cereus; [4]): >128 µg/mL
CCCCOC(=O)CCCCCCC/C=C\CCCCCCC(C)OC1OC(CO)C(O)C(O)C1OC1OC(CO)C(O)C(O)C1O (centres unmarked) [SL Butyl ester]	more than 99.9%	≤ 1	–	8 (≈ 11.8 µM)	8 (≈ 11.8 µM)	8 (≈ 11.8 µM)	–
CCOC(=O)CCCCCCC/C=C\CCCCCCC(C)OC1OC(CO)C(O)C(O)C1OC1OC(CO)C(O)C(O)C1O (centres unmarked) [SL Ethyl ester]	–	–	–	32 (≈ 49.2 µM)	32 (≈ 49.2 µM)	32 (≈ 49.2 µM)	–
CCCOC(=O)CCCCCCC/C=C\CCCCCCC(C)OC1OC(CO)C(O)C(O)C1OC1OC(CO)C(O)C(O)C1O (centres unmarked) [SL Propyl ester]	more than 99.9%	≤ 1	–	25 (≈ 37.6 µM)	25 (≈ 37.6 µM)	16 (≈ 24.1 µM)	–
SL Pentyl ester	–	–	no activity	–	–	–	Minimum Inhibitory Concentration (MIC) Listeria Innocua (Listeria innocua; [3]): 8 µg/mL; Minimum Inhibitory Concentration (MIC) B. Subtilis (B. Subtilis; [4]): >128 µg/mL; Minimum Inhibitory Concentration (MIC) B. Subtilis (B. Subtilis; incubation time 16 h, 10^6 cfu/mL, no visible growth, listed as pentyl ester): > 128 µg/mL; Minimum Inhibitory Concentration (MIC) B. Cereus (B. Cereus; [4]): 8 µg/mL
CC(=O)OCC1OC2OC(C)CCCCCC/C=C\CCCCCCCC(=O)OC3C(COC(C)=O)OC(OC2C(O)C1O)C(O)C3O (centres unmarked) [Lactonic SL, LSL 6′,6″-diacetate, reference compound]	–	~2	active	32 (≈ 46.5 µM)	8 (≈ 11.6 µM)	16 (≈ 23.2 µM)	activity against Listeria innocua (in words) (Listeria innocua): active; activity against B. Cereus (in words) (B. Cereus): active; water solubility (in words) [1]: low water solubility; solubility in aqueous systems (in words) [2]: very low solubility
